# From PMC12223310, “Mining the heparinome for cryptic antimicrobial peptides that selectively kill Gram-negative bacteria” (Molecular Systems Biology, 2025)
# Where two headings read alike, the source gives them in different places. Ends that are not written are not given here.
# Columns and labels:
# Escherichia coli = assay type: cell-based, Escherichia coli BW25113
# Method: (§1) Antimicrobial activities were determined by the microtiter broth dilution method recommended by the National Committee of Laboratory Safety and Standards (NCLSS), adapted for AMPs (Wiegand et al, [2008]). Briefly, overnight bacterial cell cultures were brought to an exponential growth state (OD600 = 0.4) in MH broth and diluted to a final concentration of 5 × 10^5 CFU/mL. In all, 1:2 peptide serial dilutions were prepared in 96-well polypropylene plates (Greiner, Frickenhausen, Germany), in MH medium containing 0.2% (w/v) of bovine serum albumin (BSA) and 0.02% glacial acetic acid. […] The lowest concentration with no colonies was taken as MBC. The results are the average of three independent studies.
# Listeria monocytogenes = assay type: cell-based, Listeria monocytogenes ATCC 19112
# Method: as §1
# [1] = tested on: Pseudomonas sp (Pseudomonas aeruginosa); assay type: cell-based, Pseudomonas aeruginosa ATCC 15915
# Method: as §1
# Acinetobacter baumannii = assay type: cell-based, Acinetobacter baumannii ATCC 15308
# Method: as §1
# Staphylococcus aureus = assay type: cell-based, Staphylococcus aureus ATCC 12600
# Method: as §1
# Cytotoxicity, MTT assay = assay type: cell-based; conditions: human, HepG2 cells, 4 h peptide incubation in MEMα, average of three studies, read-out: LC50 (HepG2 cells)
# Method: (§2) Toxicity in MRC-5 and HepG2 cells was tested by the MTT assay, as described (Bello-Madruga et al, [2023]). Cell lines were maintained in Eagle’s minimum essential medium (MEMα) supplemented with 10% fetal bovine serum (FBS). Cells were cultured in 75-cm^2 flasks and then transferred to polystyrene 96-well plates, at 3 × 10^4 cells per well, and incubated overnight for attachment to the well surface. Then culture media was removed and 1:2 peptide serial dilutions in MEMα were added to each well and later incubated for 4 h. After incubation, peptides were removed and 100 μL of 0.5 mg/mL MTT staining solution in MEMα supplemented with 10% FBS was added to cells and incubated for 1.5 h at 37 °C. Formazan crystals in living cells were detected after disruption with 200 μL dimethyl sulfoxide and then absorbance was measured at 570 nm in a Tecan Spark instrument (Tecan, Männedorf, Switzerland). The results are the average of three independent studies.
# in vitro = assay type: cell-based; conditions: human, MRC-5 cells
# Method: as §2
# P. aeruginosa 827632 = assay type: cell-based
# Method: as §1
# E. coli CFT073 = assay type: cell-based
# Method: as §1
# E. coli 1166795 = assay type: cell-based
# Method: as §1
# A. baumannii 3880 = assay type: cell-based
# Method: as §1
# A. baumannii 3878 = assay type: cell-based
# Method: as §1
# P. aeruginosa 827651 = assay type: cell-based
# Method: as §1
# Enterococcus faecium = assay type: cell-based, Enterococcus faecium ATCC 19434
# Method: as §1
Compound,MIC E. coli (Escherichia coli) [µM],MIC L. monocytogenes (Listeria monocytogenes) [µM],MIC Pseudomonas sp [1] [µM],MIC A. baumannii (Acinetobacter baumannii) [µM],MIC S. aureus (Staphylococcus aureus),MBC E. coli (Escherichia coli) [µM],"CC50 at 4 h (Cytotoxicity, MTT assay) [µM]",CC50 at 4 h (in vitro) [µM],MBC L. monocytogenes (Listeria monocytogenes) [µM],MBC P. aeruginosa 827632 (P. aeruginosa 827632) [µM],MIC P. aeruginosa 827632 (P. aeruginosa 827632) [µM],MBC E. coli CFT073 (E. coli CFT073) [µM],MIC E. coli CFT073 (E. coli CFT073) [µM],MBC E. coli 1166795 (E. coli 1166795) [µM],MIC E. coli 1166795 (E. coli 1166795) [µM],MBC E. faecium (Enterococcus faecium),MIC E. faecium (Enterococcus faecium),MBC Pseudomonas sp [1] [µM],MBC A. baumannii (Acinetobacter baumannii) [µM],MBC S. aureus (Staphylococcus aureus),further results
HNLFRKLTAALFRANFGYTLRSV-NH2 [ΔCPC’],1.6,3.1,1.6,1.6,6.3 µM,–,–,–,–,–,–,–,–,–,–,–,–,–,–,–,–
RFYLSKKKWVMVP-NH2 [HBP-2],12.5,37.5,25,50,>100/ > 100 µM,25,> 200,> 200,> 100,> 100,> 100,100,50,12.5,12.5,>100/ > 100 µM,>100/ > 100 µM,50,50,>100/ > 100 µM,MBC A. baumannii 3880 (A. baumannii 3880): > 50 µM; MIC A. baumannii 3880 (A. baumannii 3880): > 50 µM; MBC A. baumannii 3878 (A. baumannii 3878): 50 µM; MIC A. baumannii 3878 (A. baumannii 3878): 50 µM; MBC P. aeruginosa 827651 (P. aeruginosa 827651): > 100 µM; MIC P. aeruginosa 827651 (P. aeruginosa 827651): > 100 µM
GWKDKKSYRWFLQHRPQVGYIRVRFY-NH2 [HBP-4],0.2,1.6,0.8,0.8,3.1 µM,0.2,38,35,3.1,6.3,6.3,1.6,0.8,< 0.1,< 0.1,50 µM,12.5 µM,0.8,0.8,12.5 µM,MBC A. baumannii 3880 (A. baumannii 3880): 1.6 µM; MIC A. baumannii 3880 (A. baumannii 3880): 1.6 µM; MBC A. baumannii 3878 (A. baumannii 3878): 0.8 µM; MIC A. baumannii 3878 (A. baumannii 3878): 0.8 µM; MBC P. aeruginosa 827651 (P. aeruginosa 827651): 6.3 µM; MIC P. aeruginosa 827651 (P. aeruginosa 827651): 3.1 µM
HNLFRKLTHRLFRQNFGYTLRSV-NH2 [Peptide R14],0.4,3.1,0.4,0.4,6.3 µM,–,–,–,–,–,–,–,–,–,–,–,–,–,–,–,–
"CC[C@H](C)[C@H](NC(=O)[C@H](CCCCN)NC(=O)[C@H](CCC(=O)O)NC(=O)[C@H](CCCCN)NC(=O)[C@H](CO)NC(=O)[C@H](CCCCN)NC(=O)[C@H](CCCNC(=N)N)NC(=O)[C@H](Cc1ccccc1)NC(=O)[C@H](Cc1ccccc1)NC(=O)[C@H](CC(=O)O)NC(=O)CNC(=O)[C@H](CC(C)C)NC(=O)[C@@H](N)CC(C)C)C(=O)NCC(=O)N[C@@H](CCCCN)C(=O)N[C@@H](CCC(=O)O)C(=O)N[C@@H](Cc1ccccc1)C(=O)N[C@@H](CCCCN)C(=O)N[C@@H](CCCNC(=N)N)C(=O)N[C@H](C(=O)N[C@H](C(=O)N[C@@H](CCC(N)=O)C(=O)N[C@@H](CCCNC(=N)N)C(=O)N[C@H](C(=O)N[C@@H](CCCCN)C(=O)N[C@@H](CC(=O)O)C(=O)N[C@@H](Cc1ccccc1)C(=O)N[C@@H](CC(C)C)C(=O)N[C@@H](CCCNC(=N)N)C(=O)N[C@@H](CC(N)=O)C(=O)N[C@@H](CC(C)C)C(=O)N[C@H](C(=O)N1CCC[C@H]1C(=O)N[C@@H](CCCNC(=N)N)C(=O)N[C@H](C(=O)N[C@@H](CCC(=O)O)C(=O)N[C@@H](CO)C(N)=O)[C@@H](C)O)C(C)C)[C@@H](C)CC)C(C)C)[C@@H](C)CC [LL-37, reference compound]",–,0.8,0.8,6.3,25 µM,–,53,–,3.1,–,–,–,–,–,–,3.1 µM,0.8 µM,0.8,6.3,25 µM,"MBC E. coli (Escherichia coli; MIC wells plated on LB agar, overnight 37 °C, no colonies, average of three studies): 3.1 µM; MIC E. coli (Escherichia coli; microtiter broth dilution, MH broth, 5 × 10^5 CFU/mL, overnight 37 °C, average of three studies): 1.6 µM; CC50 at 4 h (in vitro; MTT, 4 h peptide incubation in MEMα, average of three studies, read-out: LC50 (MRC-5 cells)): 26 µM"
